Measurements from US9845310B2 (priority 2015, dated 2017).
pEC50: −log10 of the molar value. Like-named read-outs stand apart in the source and are kept apart here.

Biological target: APJ (Homo sapiens (Human), UniProt P35414)
Assay: [35S]GTPγS binding assay on membranes from CHO cells stably expressing human APJ receptor
Assay type: biochemical
Settings: for pEC50: read-out: Activity hAPJ SPA EC50 IP; for EC50: Activity hAPJ SPA EC50 IP (μM)
Description: A GTPγS binding assay was performed on membranes prepared from CHO cells stably expressing human APJ receptor. The optimum experimental conditions for the concentrations of GDP, MgCl2, and NaCl in the assay buffer were initially determined. The assay was performed in assay buffer [20 mM HEPES, pH 7.5, 5 mM MgCl2, and 0.1% (w/v) BSA with 200 mM NaCl, 3 M GDP] and membranes expressing human APJ receptor/well along with WGA PS beads. The reaction was initiated by addition of 0.2 nM [^35S]GTPγS (Perkin Elmer Life and Analytical Sciences, Waltham USA) in the absence or presence of various ligands and incubated at RT for 90 min. Nonspecific binding was determined in the presence of 100 M GTPγS and was always less than 0.2% of total binding.

Sequence of APJ (P35414 whole entry): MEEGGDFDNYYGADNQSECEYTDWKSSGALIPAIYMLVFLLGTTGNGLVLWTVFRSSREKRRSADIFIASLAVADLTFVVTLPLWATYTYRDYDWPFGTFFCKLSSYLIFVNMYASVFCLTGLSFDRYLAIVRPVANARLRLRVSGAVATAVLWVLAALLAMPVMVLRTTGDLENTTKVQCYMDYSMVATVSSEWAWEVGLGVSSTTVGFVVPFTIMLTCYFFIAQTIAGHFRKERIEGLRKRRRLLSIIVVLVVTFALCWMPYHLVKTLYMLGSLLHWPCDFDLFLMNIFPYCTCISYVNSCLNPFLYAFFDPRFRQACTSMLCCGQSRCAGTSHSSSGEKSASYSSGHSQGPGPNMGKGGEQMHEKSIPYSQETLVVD

| SMILES | pEC50 | EC50 |
| --- | --- | --- |
| COc1cccc(-c2nnc(NS(=O)(=O)[C@H](C)[C@H](O)c3cn(C)cn3)n2-c2c(OC)cccc2OC)n1 (mixture of isomers) [Example 259.0, (1R,2R)-N-(4-(2,6-dimethoxyphenyl)-5-(6-methoxypyridin-2-yl)-4H-1,2,4-triazol-3-yl)-1-hydroxy-1-(1-methyl-1H-imidazol-4-yl)propane-2-sulfonamide and (1S,2S)-N-(4-(2,6-dimethoxyphenyl)-5-(6-methoxypyridin-2-yl)-4H-1,2,4-triazol-3-yl)-1-hydroxy-1-(1-methyl-1H-imidazol-4-yl)propane-2-sulfonamide] | 7.96 | – |
| COc1cccc(-c2nnc(NS(=O)(=O)C[C@H](O)c3ccc(F)cc3S(C)(=O)=O)n2-c2c(OC)cccc2OC)n1 (mixture of isomers) [Example 267.0, (R)-N-(4-(2,6-dimethoxyphenyl)-5-(6-methoxypyridin-2-yl)-4H-1,2,4-triazol-3-yl)-2-(4-fluoro-2-(methylsulfonyl)phenyl)-2-hydroxyethanesulfonamide and (S)-N-(4-(2,6-dimethoxyphenyl)-5-(6-methoxypyridin-2-yl)-4H-1,2,4-triazol-3-yl)-2-(4-fluoro-2-(methylsulfonyl)phenyl)-2-hydroxyethanesulfonamide] | – | 0.00015 µM |
| COc1cccc(-c2nnc(NS(=O)(=O)[C@@H](C)[C@H](O)c3ccc(F)cc3)n2-c2c(OC)cccc2OC)n1 (mixture of isomers) [Example 283.0] | – | 0.00096 µM |
| COc1cccc(-c2nnc(NS(=O)(=O)C[C@H](O)c3ccc(F)cn3)n2-c2c(OC)cccc2OC)n1 (mixture of isomers) [Example 315.0, (2R)-N-(4-(2,6-dimethoxyphenyl)-5-(6-methoxy-2-pyridinyl)-4H-1,2,4-triazol-3-yl)-2-(5-fluoro-2-pyridinyl)-2-hydroxyethanesulfonamide and (2S)-N-(4-(2,6-dimethoxyphenyl)-5-(6-methoxy-2-pyridinyl)-4H-1,2,4-triazol-3-yl)-2-(5-fluoro-2-pyridinyl)-2-hydroxyethanesulfonamide] | – | 0.00032 µM |
| COc1cccc(-c2nnc(NS(=O)(=O)C[C@H](OC)c3ccc(F)cn3)n2-c2c(OC)cccc2OC)n1 (mixture of isomers) [Example 328.0, (2R)-N-(4-(2,6-dimethoxyphenyl)-5-(6-methoxy-2-pyridinyl)-4H-1,2,4-triazol-3-yl)-2-(5-fluoro-2-pyridinyl)-2-methoxyethanesulfonamide and (2S)-N-(4-(2,6-dimethoxyphenyl)-5-(6-methoxy-2-pyridinyl)-4H-1,2,4-triazol-3-yl)-2-(5-fluoro-2-pyridinyl)-2-methoxyethanesulfonamide] | – | 0.00033 µM |
| COc1cccc(-c2nnc(NS(=O)(=O)C[C@H](O)c3ccc(C#N)cn3)n2-c2c(OC)cccc2OC)n1 (mixture of isomers) [Example 331.0, (R)-2-(5-cyanopyridin-2-yl)-N-(4-(2,6-dimethoxyphenyl)-5-(6-methoxypyridin-2-yl)-4H-1,2,4-triazol-3-yl)-2-hydroxyethanesulfonamide and (S)-2-(5-cyanopyridin-2-yl)-N-(4-(2,6-dimethoxyphenyl)-5-(6-methoxypyridin-2-yl)-4H-1,2,4-triazol-3-yl)-2-hydroxyethanesulfonamide] | – | 0.00024 µM |
| COc1cccc(-c2nnc(NS(=O)(=O)[C@H](C)[C@@H](O)C3CC3)n2-c2c(OC)cccc2OC)n1 (mixture of isomers) [Example 438.0] | – | 0.052 µM |
| COc1cccc(OC)c1-n1c(NS(=O)(=O)C[C@H](O)c2ccc(Cl)cc2S(C)(=O)=O)nnc1-c1cncc(C)c1 (mixture of isomers) [Example 457.0, (2R)-2-(4-chloro-2-(methylsulfonyl)phenyl)-N-(4-(2,6-dimethoxyphenyl)-5-(5-methyl-3-pyridinyl)-4H-1,2,4-triazol-3-yl)-2-hydroxyethanesulfonamide and (2S)-2-(4-chloro-2-(methylsulfonyl)phenyl)-N-(4-(2,6-dimethoxyphenyl)-5-(5-methyl-3-pyridinyl)-4H-1,2,4-triazol-3-yl)-2-hydroxyethanesulfonamide] | – | 0.0003 µM |
| COc1cccc(-c2nnc(NS(=O)(=O)[C@@H](C)[C@H](OC)c3ccc(C#N)cc3C#N)n2-c2c(OC)cccc2OC)n1 (mixture of isomers) [Example 473.0] | 9.64 | – |
| COc1cccc(-c2nnc(NS(=O)(=O)C[C@H](O)c3ccc(C#N)cc3S(C)(=O)=O)n2-c2c(OC)cccc2OC)n1 (mixture of isomers) [Example 481.0, (2S)-2-(4-cyano-2-(methylsulfonyl)phenyl)-N-(4-(2,6-dimethoxyphenyl)-5-(6-methoxy-2-pyridinyl)-4H-1,2,4-triazol-3-yl)-2-hydroxyethanesulfonamide and (2R)-2-(4-cyano-2-(methylsulfonyl)phenyl)-N-(4-(2,6-dimethoxyphenyl)-5-(6-methoxy-2-pyridinyl)-4H-1,2,4-triazol-3-yl)-2-hydroxyethanesulfonamide] | – | 0.00024 µM |
| COc1cccc(-c2nnc(NS(=O)(=O)C[C@H](OC)c3ccc(C#N)cc3S(C)(=O)=O)n2-c2c(OC)cccc2OC)n1 (mixture of isomers) [Example 484.0, (2R)-2-(4-cyano-2-(methylsulfonyl)phenyl)-N-(4-(2,6-dimethoxyphenyl)-5-(6-methoxy-2-pyridinyl)-4H-1,2,4-triazol-3-yl)-2-methoxyethanesulfonamide and (2S)-2-(4-cyano-2-(methylsulfonyl)phenyl)-N-(4-(2,6-dimethoxyphenyl)-5-(6-methoxy-2-pyridinyl)-4H-1,2,4-triazol-3-yl)-2-methoxyethanesulfonamide] | – | 0.00026 µM |
| COc1cccc(OC)c1-n1c(NS(=O)(=O)[C@@H](C)[C@H](OC)c2ccc(Cl)cn2)nnc1-c1cccnc1 (mixture of isomers) [Example 529.0, (1S,2R)-1-(5-chloro-2-pyridinyl)-N-(4-(2,6-dimethoxyphenyl)-5-(3-pyridinyl)-4H-1,2,4-triazol-3-yl)-1-methoxy-2-propanesulfonamide and (1R,2S)-1-(5-chloro-2-pyridinyl)-N-(4-(2,6-dimethoxyphenyl)-5-(3-pyridinyl)-4H-1,2,4-triazol-3-yl)-1-methoxy-2-propanesulfonamide] | – | 0.00048 µM |
| COc1cnc([C@H](O)[C@@H](C)S(=O)(=O)Nc2nnc(-c3cccnc3)n2-c2c(OC)cccc2OC)cn1 (mixture of isomers) [Example 703.0, (1R,2S)-N-(4-(2,6-dimethoxyphenyl)-5-(3-pyridinyl)-4H-1,2,4-triazol-3-yl)-1-hydroxy-1-(5-methoxy-2-pyrazinyl)-2-propanesulfonamide and (1S,2R)-N-(4-(2,6-dimethoxyphenyl)-5-(3-pyridinyl)-4H-1,2,4-triazol-3-yl)-1-hydroxy-1-(5-methoxy-2-pyrazinyl)-2-propanesulfonamide] | – | 0.002 µM |
| COc1cccc(-c2nnc(NS(=O)(=O)[C@H](C)[C@@H](O)c3cc(C)n(C)n3)n2-c2c(OC)cccc2OC)n1 (racemic) [Example 260.0, (1S,2R)-N-(4-(2,6-dimethoxyphenyl)-5-(6-methoxypyridin-2-yl)-4H-1,2,4-triazol-3-yl)-1-(1,5-dimethyl-1H-pyrazol-3-yl)-1-hydroxypropane-2-sulfonamide and (1R,2S)-N-(4-(2,6-dimethoxyphenyl)-5-(6-methoxypyridin-2-yl)-4H-1,2,4-triazol-3-yl)-1-(1,5-dimethyl-1H-pyrazol-3-yl)-1-hydroxypropane-2-sulfonamide] | – | 0.0024 µM |
